Assay results from patent US11052099B2, “Use of cimicifugae rhizoma triterpenoid saponin extract, actein, and deoxyactein” (BEIJING DITAN HOSPITAL, CAPITAL MEDICAL UNIVERSITY, priority 2017, dated 2021).

How the values were obtained:
[1] = tested on: serum cytokines TNF-α, IL-12, IL-6, MCP-1, IFN-γ; assay: Serum inflammatory cytokine secretion in ConA mouse model; assay type: in vivo, C57BL/6 mice; details: MEAN ± SEM; for IL-6 / IL-12 / MCP-1 / TNF-α: serum 3 hours after ConA injection; for IFN-γ: serum 10 hours after ConA injection
Protocol: (§1) Grouping: C57BL/6 mice, male, 18-20 g, after 1 day of adaptive breeding, randomly divided into 5 groups: normal control group, ConA model group, triterpenoid saponin group, actein group and deoxyactein group.
(§2) Model preparation and drug administration: except the normal control group, mice were injected intravenously at a dose of ConA 15 mg/kg. The dosage of each group was the same as that of Experimental Example 1.
(3) The effect of each group of drugs on serum cytokine secretion of ConA mice was examined. Six mice in each group. Peripheral blood was collected 3 hours after ConA injection and serum was separated to detect the secretion of cytokines TNF-α, IL-12, IL-6 and MCP-1. Serum was separated 10 hours after ConA injection to detect cell factor IFN-γ secretion.

[2] = tested on: ConA hepatitis mouse model; assay: Survival rate of ConA hepatitis mouse model; assay type: in vivo, C57BL/6 mice; details: ConA 25 mg/kg i.v.; 96-hour observation; gavage, extract 15 mg/kg, actein and deoxyactein 5 mg/kg; model group 10%
Protocol: Test materials: ConA was purchased from Sigma; actein and deoxyactein were purchased from ChromaDex, USA.
(§3) Animal: C57BL/6 mice, purchased from Beijing Huafukang Biotechnology Co., Ltd.
Grouping: 40 C57BL/6 mice, male, 18-20 g, after 1 day of adaptive breeding, mice were randomly divided into 4 groups of 10 animals in each group: ConA model group, triterpenoid saponin group, actein group, and deoxyactein group.
Model preparation and drug administration: weighed 150 mg of ConA powder, dissolved it in 40 mL of sterile PBS, left it at room temperature for 1 to 2 hours, and continued to gently shake intermittently to mix well. Low temperature ultrasound was used to improve dissolution (no more than 5 min each time) and avoided excessive foaming. After it was fully dissolved, the volume was adjusted to 50 mL to a concentration of 3 mg/mL and filtered the solution under pressure with a 0.45 μm filter. Mice were given a single intravenous injection at 25 mg/kg, with 100 μL per mouse. Took 4 mg of actein and deoxyactein, added 10 ml of sterile double-distilled water to dissolve to a concentration of 0.4 mg/mL. […]

[3] = tested on: mouse bone marrow-derived macrophages (BMDM); assay: IL-12 and TNF-α secretion by LPS-stimulated macrophages (BMDM); assay type: cell-based, C57BL/6 mice; details: ELISA
From the text: Test materials: LPS was purchased from Sigma; actein and deoxyactein were purchased from American ChromaDex; FBS was purchased from American PAA; DMEM high glucose medium; macrophage colony-stimulating factor (M-CSF) was purchased from PeproTech company; ELISA kit was purchased from BD company of the United States.
as §3
Isolation and culture of mouse bone marrow-derived macrophages (BMDM): after anesthesia of C57BL/6 mice, the mouses 2 pairs of femur and tibia were aseptically separated, and the bone marrow cells were flushed into a sterile flow tube using a 2 mL syringe with sterile PBS. Repeatedly pipetted into a bone marrow single cell suspension. After centrifugation, bone marrow cells were harvested, and 10 mL of complete medium containing 10% FBS, 1% glutamine, 1% double antibiotics (anti-penicillin, anti-streptomycin), and 10 ng/mL M-CSF were added to […] cell culture dish to culture at 37° C. After 4 days, the above fresh medium was changed, and macrophages with large volume, adherent growth, and mature differentiation were observed under the microscope on the 7th day. The cells were scraped off with a cell scraper, and repeatedly blown and mixed to form a single cell suspension, and then seeded in a 96-well plate at 1×10^5 cells/well.
BMDM cells induced activation and drug treatment: BMDM cells were treated with different doses of actein and deoxyactein, and 100 ng/mL LPS was given to stimulate cells 1 h later to simulate the activation of macrophages by bacterial infection. The cell supernatant was collected 4 hours later, and cytokine secretion was detected by ELISA.

[4] = tested on: CD45+CD3+NK1.1+ NKT cells; assay: IFN-γ expression in NKT cells; assay type: cell-based, C57BL/6 mice; details: bone marrow cells; actein 62.5 ng/mL, deoxyactein 250 ng/mL; PMA + ionomycin 5 h; flow cytometry; PMA + ionomycin group 7.1 ± 0.7
From the text: Test material: same as Experimental Example 9.
Animal: C57BL/6 mice, purchased from Beijing Huafukang Biotechnology Co., Ltd
Bone marrow single cell suspension preparation: same as Experimental Example 9.
Drug treatment and intracellular staining after NKT cell induction activation: same as Experimental Example 9. Flow cytometry was used to detect the percentage of positive cells expressing IFN-γ in CD45^+CD3^+NK1.1^+ NKT cells.

CD3+CD8+ T cells = assay: IFN-γ expression in CD8+ T lymphocytes; assay type: cell-based, C57BL/6 mice; details: spleen cells; actein 62.5 ng/mL, deoxyactein 250 ng/mL; PMA + ionomycin 5 h; PMA + ionomycin group 14.5 ± 1.0
Protocol: (§4) Test materials: CD3-PE antibodies were purchased from BD Company in the United States, and CD4-FITC and CD8-PerCP antibodies were purchased from eBioscience Company; the remaining required reagents were the same as those in Experimental Example 9.
as §3
(§5) Preparation of spleen single cell suspension: after anesthesia of C57BL/6 mice, isolated the spleen of the mouse, placed the spleen in a sterile petri dish with 4 mL of PBEB added, grinded the spleen with a glass frosted surface, and filtered with a sterile 400 mesh filter. The spleen cells were placed in a flow tube, and the supernatant was discarded after centrifugation. After adding 2 mL of RBC Lysis Buffer to lyse at room temperature for 15 minutes, the supernatant was discarded by centrifugation to harvest the spleen cells. Then added 1.5 mL of complete medium containing 10% FBS, 1% glutamine, and 1% double antibiotics (anti-penicillin, anti-streptomycin), and mixed well by repeated pipetting.
(§6) Drug treatment and intracellular staining after T cell induction activation: cells were treated with 62.5 ng/mL actein and 250 ng/mL deoxyactein in a medium concentration, and Cell Stimulation Cocktail (containing PMA, ionomycin and protein transport inhibitor) was added to stimulate the cells for 5 h. […]

[5] = tested on: ConA hepatitis mouse model; assay: Serum ALT and AST in ConA hepatitis mouse model; assay type: in vivo, C57BL/6 mice; details: serum 10 hours after ConA 15 mg/kg i.v.; gavage, extract 15 mg/kg, actein/deoxyactein 5 mg/kg; MEAN ± SEM
Protocol: The test materials and animals were the same as those in Experimental Example 1.
as §1, §2
(1) The effects of drug administration in each group on serum ALT and AST of ConA mice were measured. Eight mice in each group were sacrificed under anesthesia 10 hours after ConA injection. Peripheral blood was taken, and serum was separated to detect ALT and AST.

CD45+CD3-NK1.1+ NK cells = assay: IFN-γ expression in NK cells; assay type: cell-based, C57BL/6 mice; details: bone marrow cells; actein 62.5 ng/mL, deoxyactein 250 ng/mL; PMA + ionomycin 5 h; flow cytometry; PMA + ionomycin group 42.1 ± 2.7
Protocol: Test materials: CD45-PE, CD3-FITC, NK1.1-APC antibody, Intracellular Fixation & Permeabilization Buffer Set, and Cell Stimulation Cocktail were purchased from eBioscience.
as §3
Bone marrow single cell suspension preparation: after anesthesia of C57BL/6 mice, the 2 pairs of femur and tibia of the mouse were separated aseptically, the sterile bone marrow cells were pipetted into a sterile flow tube with a 2 mL syringe and sterile PBS to obtain bone marrow single cell suspension. After centrifugation, bone marrow cells were harvested, and 1.5 mL of complete medium containing 10% FBS, 1% glutamine, and 1% double antibiotics (anti-penicillin, anti-streptomycin) were added.
Intracellular staining after drug administration and NK cell induction activation: cells were treated with actein of intermediate concentration of 62.5 ng/mL and deoxyactein at a concentration of 250 ng/mL, and the cells were stimulated with Cell Stimulation Cocktail (containing PMA, ionomycin and protein transport inhibitors) for 5 h. Surface staining was performed with CD45-PE, CD3-FITC, NK1.1-APC antibodies, intracellular staining was performed with […] antibodies, and the percentage of positive cells expressing IFN-γ in CD45^+CD3^−NK1.1^+ NK cells was detected by flow cytometry.

CD3+CD4+ T cells = assay: IFN-γ expression in CD4+ T lymphocytes; assay type: cell-based, C57BL/6 mice; details: spleen cells; actein 62.5 ng/mL, deoxyactein 250 ng/mL; PMA + ionomycin 5 h; PMA + ionomycin group 3.8 ± 0.6
Protocol: as §4, §3, §5, §6

[6] = tested on: ConA hepatitis mouse model; assay: Liver pathological damage in ConA hepatitis mouse model (HE staining); assay type: in vivo, C57BL/6 mice; details: liver 10 hours after ConA 15 mg/kg; compared with the ConA group
Protocol: as §1, §2
(2) The effects of drug administration in each group on liver pathological damage in ConA mice were examined. Three mice in each group were sacrificed under anesthesia 10 hours after ConA injection. The left lobe of the liver was taken, cut into a size of about 5 mm3, and placed in 10% formalin solution, and dehydrated, transparently impregnated with wax, embedded, sliced, and spread, observed after staining;

[7] = 25 ng/mL, LPS 100 ng/mL, 4 hours
[8] = 50 ng/mL, LPS 100 ng/mL, 4 hours
[9] = 125 ng/mL, LPS 100 ng/mL, 4 hours
[10] = 250 ng/mL, LPS 100 ng/mL, 4 hours
[11] = 500 ng/mL, LPS 100 ng/mL, 4 hours
[12] = 2.5 ng/mL, LPS 100 ng/mL, 4 hours
[13] = 12.5 ng/mL, LPS 100 ng/mL, 4 hours
[14] = 62.5 ng/mL, LPS 100 ng/mL, 4 hours
[15] = 312.5 ng/mL, LPS 100 ng/mL, 4 hours

Row | SMILES | IL-6 [1] [pg/mL] | IL-12 [1] [pg/mL] | MCP-1 [1] [pg/mL] | TNF-α [1] [pg/mL] | IFN-γ [1] [pg/mL] | survival rate [2] [%] | IFN-γ+ [4] [%] | IFN-γ+ (%), CD8+T cell (CD3+CD8+ T cells) [%] | ALT [5] [U/L] | AST [5] [U/L] | IFN-γ+ (CD45+CD3-NK1.1+ NK cells) [%] | IFN-γ+ (%), CD4+T cell (CD3+CD4+ T cells) [%] | liver pathological damage (HE staining, FIG. 2) [6] | also measured
1 | CC(=O)O[C@@H]1C[C@@]23C[C@@]24CC[C@H](O[C@@H]2OC[C@@H](O)[C@H](O)[C@H]2O)C(C)(C)[C@@H]4CC[C@H]3[C@]2(C)C[C@@H]3O[C@]4(C[C@@H](C)[C@@H]3[C@@]12C)OC[C@@]1(C)O[C@@H]41 [Deoxyactein, deoxyactein] | 1406 ± 134.1 | 190.5 ± 22.5 | 4741 ± 665.7 | 394.4 ± 41.8 | 245.3 ± 56 | 40 | 2.2 ± 0.4 | 12.1 ± 1.3 | 144.4 ± 68.5 | 390.8 ± 98.2 | 29.5 ± 3.5 | 2.0 ± 0.7 | large pieces of hepatocyte necrosis was significantly reduced and leukocyte infiltration was reduced | IL-12 [3, 7]: 244 ± 2.8 pg/mL; TNF-α [3, 7]: 2529 ± 121.3 pg/mL; IL-12 [3, 8]: 177.8 ± 12.5 pg/mL; TNF-α [3, 8]: 2321 ± 97.4 pg/mL; IL-12 [3, 9]: 142.3 ± 6.8 pg/mL; TNF-α [3, 9]: 2440 ± 84.8 pg/mL; IL-12 [3, 10]: 88.1 ± 22.3 pg/mL; TNF-α [3, 10]: 2305 ± 76.8 pg/mL; IL-12 [3, 11]: 42.2 ± 23.7 pg/mL; TNF-α [3, 11]: 2077 ± 43.8 pg/mL
2 | CC(=O)O[C@@H]1C[C@@]23C[C@@]24CC[C@H](O[C@@H]2OC[C@@H](O)[C@H](O)[C@H]2O)C(C)(C)[C@@H]4CC[C@H]3[C@]2(C)C[C@@H]3O[C@]4(C[C@@H](C)[C@@H]3[C@@]12C)O[C@H](O)[C@@]1(C)O[C@@H]41 [Actein, actein] | 792 ± 48 | 22 ± 1.9 | 1832 ± 209.7 | 173 ± 18.2 | 116.2 ± 34.8 | 60 | 3.5 ± 0.6 | 14.3 ± 0.7 | 39.8 ± 11.1 | 212 ± 33 | 33.0 ± 2.2 | 3.1 ± 0.6 | large pieces of hepatocyte necrosis was significantly reduced and leukocyte infiltration was reduced | IL-12 ([3]; 0.5 ng/mL, LPS 100 ng/mL 1 h later, supernatant after 4 hours, LPS group 226.6 ± 26.6): 194.5 ± 22.3 pg/mL; TNF-α ([3]; 0.5 ng/mL, LPS 100 ng/mL 1 h later, supernatant after 4 hours, LPS group 2891 ± 57): 2555 ± 62.3 pg/mL; IL-12 [3, 12]: 136.3 ± 22.8 pg/mL; TNF-α [3, 12]: 2483 ± 77.3 pg/mL; IL-12 [3, 13]: 88.5 ± 10.6 pg/mL; TNF-α [3, 13]: 2327 ± 77.3 pg/mL; IL-12 [3, 14]: 48.2 ± 21.4 pg/mL; TNF-α [3, 14]: 2056 ± 49.2 pg/mL; IL-12 [3, 15]: 8 ± 0.8 pg/mL; TNF-α [3, 15]: 2062 ± 49 pg/mL
